Patent US9249139B2, “Indolizinone based derivatives as potential phosphodiesterase 3 (PDE3) inhibitors and a process for the preparation thereof” (COUNCIL OF SCIENTIFIC & INDUSTRIAL RESEARCH, priority 2013, dated 2016)

target: PDE3 enzyme (Homo sapiens (Human), UniProt Q14432); assay: PDE3 inhibition assay, BIOMOL GREEN Quantizyme Assay System; format: biochemical; conditions: PDE3 enzyme from platelets isolated from human blood; cAMP substrate; 1 hour at 37° C.; read at 620 nm
Procedure: PDE3 inhibition assay was performed a BIOMOL GREEN™ Quantizyme Assay System (catalogue No. BML-AK800-0001). The Platelets isolated from human blood were used as a source of PDE3 enzyme. 10 mL blood collected in a vacutainer tube (containing K3 EDTA) and centrifuged at 190×g for 15 min at room temperature. Top layer (platelet rich plasma) collected, centrifuged at 2500g for 5 min at 22° C. (Room temp.) The pellet was washed with 2 ml of 50 mM tris buffer (pH-7.4) containing 1 mM MgCl2 and centrifuged at 2500 g for 5 min. Then 200 μl of assay buffer (from PDE kit, Enzo Life Sciences) was added to the pellet and sonicated at 30 s per ml. Pellet was freeze thawed for three times (−80° C.) in order to rupture the platelet membrane and release the PDE enzyme. Then the cell homogenate was centrifuged at 2500 rpm for 5 min. Supernatant was collected and used as source for PDE3 enzyme. In 96 well plate (Prod. No. BML-KI101), we added supernatant having PDE3 enzyme, PDE3 assay buffer, cAMP substrate, 5′nucleotidase and test or standard compound and incubated for 1 hour at 37° C. The reaction was arrested by the addition 100 μl BIOMOL GREEN reagent incubated in room temp for 20 min. The green color developed was measured at 620 nm
The in vitro Phosphodiestarase (PDE3) inhibitory activity of compounds 1a-p were measured using a BIOMOL GREEN™ Quantizyme Assay System (catalogue No. BML-AK800-0001). The basic principle for this assay is the cleavage of c-AMP or c-GMP into their respective nucleotide by a cyclic nucleotide phosphodiesterase. The nucleotide (AMP or GMP) released is further cleaved into the nucleoside and phosphate by the enzyme 5′-nucleotidase. The extent of phosphate released is directly proportional to the PDE activity. In this screening method, the released phosphate by the enzymatic cleavage is quantified using BIOMOL GREEN reagent in a modified malachite green assay. The resulting green colour with λmax at 620 nm is directly proportional to the released phosphate and then PDE activity.

Chain of PDE3 enzyme (Q14432 whole entry): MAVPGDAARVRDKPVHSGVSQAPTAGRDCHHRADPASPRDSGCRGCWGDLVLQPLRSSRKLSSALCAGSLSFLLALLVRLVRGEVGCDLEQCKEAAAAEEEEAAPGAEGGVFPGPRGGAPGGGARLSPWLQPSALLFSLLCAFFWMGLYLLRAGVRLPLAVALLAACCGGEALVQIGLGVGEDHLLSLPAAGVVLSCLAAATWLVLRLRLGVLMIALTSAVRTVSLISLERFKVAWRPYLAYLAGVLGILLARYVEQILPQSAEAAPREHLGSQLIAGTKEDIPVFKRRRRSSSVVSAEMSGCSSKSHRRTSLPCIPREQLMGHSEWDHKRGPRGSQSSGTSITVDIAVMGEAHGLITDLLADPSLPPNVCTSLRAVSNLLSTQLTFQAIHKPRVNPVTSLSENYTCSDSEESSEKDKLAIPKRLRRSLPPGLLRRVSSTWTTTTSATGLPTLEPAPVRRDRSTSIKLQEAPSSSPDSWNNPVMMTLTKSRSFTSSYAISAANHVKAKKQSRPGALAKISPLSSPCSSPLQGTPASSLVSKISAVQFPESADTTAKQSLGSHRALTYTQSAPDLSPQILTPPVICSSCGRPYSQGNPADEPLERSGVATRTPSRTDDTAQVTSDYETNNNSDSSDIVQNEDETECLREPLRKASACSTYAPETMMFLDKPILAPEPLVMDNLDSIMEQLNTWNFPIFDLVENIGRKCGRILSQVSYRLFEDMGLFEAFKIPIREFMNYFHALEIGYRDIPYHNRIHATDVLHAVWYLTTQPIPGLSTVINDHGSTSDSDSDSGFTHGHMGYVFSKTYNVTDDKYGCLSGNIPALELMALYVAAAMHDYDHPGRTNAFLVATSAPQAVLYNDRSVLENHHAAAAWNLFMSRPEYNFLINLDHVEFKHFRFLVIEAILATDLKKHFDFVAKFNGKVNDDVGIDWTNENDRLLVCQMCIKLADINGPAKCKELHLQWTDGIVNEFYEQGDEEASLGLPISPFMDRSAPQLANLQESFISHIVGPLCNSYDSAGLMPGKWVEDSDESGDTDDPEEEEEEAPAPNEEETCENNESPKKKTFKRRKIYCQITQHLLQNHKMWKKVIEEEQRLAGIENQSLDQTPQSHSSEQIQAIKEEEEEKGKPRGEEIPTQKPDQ

**Q.** With CCOC(=O)c1cc(Cc2ccccc2)c(=O)n2c1CCC2 [Compound 1a, Ethyl 6-benzyl-5-oxo-1,2,3,5-tetrahydro-8-indolizinonecarboxylate] as the molecule, how does the IC50 read?
**A.** 435 nM

**Q.** How did the IC50 turn out when CCOC(=O)c1cc(Cc2cccc(F)c2)c(=O)n2c1CCC2 [Compound 1c, Ethyl 6-(3-fluorobenzyl)-5-oxo-1,2,3,5-tetrahydro-8-indolizinonecarboxylate] was run?
**A.** 13.5 nM

**Q.** With CCOC(=O)c1cc(Cc2ccc(F)cc2)c(=O)n2c1CCC2 [Compound 1d, Ethyl 6-(4-fluorobenzyl)-5-oxo-1,2,3,5-tetrahydro-8-indolizinonecarboxylate] as the molecule, how does the IC50 read?
**A.** 1600 nM

**Q.** CCOC(=O)c1cc(Cc2ccccc2Cl)c(=O)n2c1CCC2 [Compound 1e, Ethyl 6-(2-chlorobenzyl)-5-oxo-1,2,3,5-tetrahydro-8-indolizinonecarboxylate] was tested. Which IC50 did it give?
**A.** 129 nM

**Q.** Which IC50 does the source give for CCOC(=O)c1cc(Cc2ccc(Cl)cc2)c(=O)n2c1CCC2 [Compound 1g, Ethyl 6-(4-chlorobenzyl)-5-oxo-1,2,3,5-tetrahydro-8-indolizinonecarboxylate] here?
**A.** 108 nM

**Q.** CCOC(=O)c1cc(Cc2ccc(Cl)cc2Cl)c(=O)n2c1CCC2 [Compound 1h, Ethyl 6-(2,4-dichlorobenzyl)-5-oxo-1,2,3,5-tetrahydro-8-indolizinonecarboxylate] was tested. Which IC50 did it give?
**A.** 577 nM

**Q.** Which IC50 does the source give for CCOC(=O)c1cc(Cc2cccc(Br)c2)c(=O)n2c1CCC2 [Compound 1j, Ethyl 6-(3-bromobenzyl)-5-oxo-1,2,3,5-tetrahydro-8-indolizinonecarboxylate] here?
**A.** 11.3 nM

**Q.** How did the IC50 turn out when CCOC(=O)c1cc(Cc2ccc(Br)cc2)c(=O)n2c1CCC2 [Compound 1k, Ethyl 6-(4-bromobenzyl)-5-oxo-1,2,3,5-tetrahydro-8-indolizinonecarboxylate] was run?
**A.** 67.3 nM
